# Assay: Inhibition of wild type CXCR1 transfected in mouse L1.2 cells assessed as inhibition of CXCL8-induced cell migration pretreated for 15 mins measured after 4 hrs
row,SMILES,IC50 [µM]
1,"O=C(O)Cc1ccccc1Nc1c(Cl)cccc1Cl [{2-[(2,6-dichlorophenyl)amino]phenyl}acetic acid]",0.012

# Assay: Inhibition of CXCL8-induced chemotaxis in human polymorphonuclear leukocyte pretreated for 15 mins measured after 4 hrs by cell migration assay
row,SMILES,IC50 [µM]
1,Cc1ccc(C(=O)c2ccc(CC(=O)O)n2C)cc1 [2-(1-methyl-5-(4-methylbenzoyl)-1H-pyrrol-2-yl)acetic acid],0.09
2,"Cc1ccc(Cl)c(Nc2ccccc2CC(=O)O)c1Cl [2-(2-(2,6-dichloro-3-methylphenylamino)phenyl)acetic acid]",0.5
3,"O=C(O)Cc1ccccc1Cc1c(Cl)cccc1Cl [2-(2-(2,6-dichlorobenzyl)phenyl)acetic acid]",> 1
4,"O=C(O)Cc1ccccc1Nc1c(F)cccc1F [2-(2-(2,6-difluorophenylamino)phenyl)acetic acid]",> 1
5,O=C(O)Cc1ccccc1Oc1ccccc1F [2-(2-(2-fluorophenoxy)phenyl)acetic acid],0.013
6,O=C(O)Cc1ccccc1Nc1ccccc1F [2-(2-(2-fluorophenylamino)phenyl)acetic acid],0.009
7,Cc1ccccc1Nc1ccccc1CC(=O)O [2-(2-(o-tolylamino)phenyl)acetic acid],> 1
8,O=C(O)Cc1cccc(C(=O)c2ccccc2)c1 [2-(3-benzoylphenyl)acetic acid],> 1
9,CS(=O)(=O)NC(=O)Cc1ccccc1Oc1ccccc1F [2-[2-(2-Fluorophenoxy)phenyl]-N-(methylsulfonyl)acetamide],0.05
10,"CC(C(=O)NCCCN(C)C)c1ccccc1Nc1c(Cl)cccc1Cl (stereo unspecified) [2-{2-[(2,6-Dichlorophenyl)amino]phenyl}-N,N'-[3,3-(dimethylamino)propyl]propanamide]",0.025
11,"Cc1cccc(C)c1NC(=O)C(C)c1ccccc1Nc1c(Cl)cccc1Cl (stereo unspecified) [2-{2-[(2,6-Dichlorophenyl)amino]phenyl}-N-(2,6-dimethylphenyl)propanamide]",0.6
12,"CC(C(=O)NCCO)c1ccccc1Nc1c(Cl)cccc1Cl (stereo unspecified) [2-{2-[(2,6-Dichlorophenyl)amino]phenyl}-N-(2-hydroxyethyl)propanamide]",0.02
13,"CC(C(=O)NS(C)(=O)=O)c1ccccc1Nc1c(Cl)cccc1Cl (stereo unspecified) [2-{2-[(2,6-Dichlorophenyl)amino]phenyl}-N-(methylsulfonyl)propanamide]",0.013
14,"CC(C(N)=O)c1ccccc1Nc1c(Cl)cccc1Cl (stereo unspecified) [2-{2-[(2,6-Dichlorophenyl)amino]phenyl}propanamide]",0.012
15,"CC(C(=O)O)c1ccccc1Nc1c(Cl)cccc1Cl (stereo unspecified) [2-{2-[(2,6-Dichlorophenyl)amino]phenyl}propanoic acid]",0.01
16,"CC(C(=O)NCCC[N+](C)(C)C)c1ccccc1Nc1c(Cl)cccc1Cl (stereo unspecified) [3-(2-(2-(2,6-dichlorophenylamino)phenyl)propanamido)-N,N,N-trimethylpropan-1-aminium iodide]",> 1
17,O=C(O)Cc1ccccc1Oc1ccccc1 [(2-Phenoxy-phenyl)-acetic acid],> 1
18,O=C(O)Cc1ccccc1Nc1ccccc1 [(2-Phenylamino-phenyl)-acetic acid],> 1
19,CC(C)Cc1ccc(CC(=O)O)cc1 [Ibufenac],> 1
20,"CC(C(=O)NC(C)(C)C)c1ccccc1Nc1c(Cl)cccc1Cl (stereo unspecified) [N-(tert-Butyl)-2-{2-[(2,6-dichlorophenyl)amino]phenyl}propanamide]",0.65
21,"O=C(O)Cc1ccccc1Nc1cc(Cl)ccc1Cl [[2-(2,5-Dichloro-phenylamino)-phenyl]-acetic acid]",0.025
22,O=C(O)Cc1ccccc1Oc1ccccc1Cl [[2-(2-Chloro-phenoxy)-phenyl]-acetic acid],0.5
23,O=C(O)Cc1ccccc1Nc1ccccc1Cl [[2-(2-Chloro-phenylamino)-phenyl]-acetic acid],0.4
24,COc1ccc2c(c1)c(CC(=O)O)c(C)n2C(=O)c1ccc(Cl)cc1 [indometacin],0.05
25,"O=C(O)Cc1ccccc1Nc1c(Cl)cccc1Cl [{2-[(2,6-dichlorophenyl)amino]phenyl}acetic acid]",0.008
